Experimental data reported in publication PMC7281072 (Cancers, 2020).
Read-outs that look alike come from different tables or passages of the source.

Experiments:
[1] = system: ERK1,2 phosphorylation; experiment: ERK1/2 phosphorylation ELISA, OVCAR-5 cells; type: cell-based, human; conditions: for Vmax ± SE, pERK 1/2 inhibition: Michaelis Menten model; for IC50: Homo sapiens, read-out: IC50, pERK 1/2 inhibition
[2] = system: AKT1,2 phosphorylation; experiment: AKT phosphorylation ELISA, UWB1.289+BRCA1 cells; type: cell-based, human; design: Vmax ± SE, pAKT 1/2 inhibition: unit not given beside the values; conditions: for Vmax ± SE, pAKT 1/2 inhibition: Michaelis Menten model; for IC50: Homo sapiens, read-out: IC50, pAKT 1/2 inhibition
[3] = system: UWB1.289+BRCA1 cancer cell line
[4] = in vivo; conditions: both, CB17 SCID, mouse, ip

| SMILES | Vmax ± SE, pERK 1/2 inhibition ([1]; 15 min) | Vmax ± SE, pERK 1/2 inhibition ([1]; 30 min) | Vmax ± SE, pERK 1/2 inhibition ([1]; 60 min) | IC50 ([1]; 0.25 h, 15 min) [µM] | IC50 ([1]; 0.5 h, 30 min) [µM] | IC50 ([1]; 1 h, 60 min) [µM] | Vmax ± SE, pAKT 1/2 inhibition ([2]; 15 min) | Vmax ± SE, pAKT 1/2 inhibition ([2]; 30 min) | Vmax ± SE, pAKT 1/2 inhibition ([2]; 60 min) | IC50 ([2]; 0.25 h, 15 min) [µM] | IC50 ([2]; 0.5 h, 30 min) [µM] | IC50 ([2]; 1 h, 60 min) [µM] | TGI (Total Growth Inhibition) [3] [μΜ] | LD50 [4] [mg/kg] |
| --- | --- | --- | --- | --- | --- | --- | --- | --- | --- | --- | --- | --- | --- | --- |
| C[C@]12CC[C@H]3[C@@H](CCC4=CC(=O)NCC[C@@]43C)[C@@H]1CC[C@@H]2OC(=O)CCOc1ccc(N(CCCl)CCCl)cc1 [ENGA-L06E, 5a,7a-dimethyl-2-oxo-2,3,4,5,5a,5b,6,7,7a,8,9,10,10a,10b,11,12-hexa decahydrocyclopenta [5, 6] naphtho [1,2-d] azepin-8-yl 3-(4-(bis(2-chloroethyl)amino)phenoxy) propanoate] | 68.95 ± 3.21 | 74.99 ± 2.47 | 80.67 ± 1.52 | 20 | 14.1 | 9.18 | 59.78 ± 4.67 | 57.10 ± 3.38 | 63.12 ± 4.19 | 44.4 | 40.3 | 25.8 | 28 ± 1.9 | – |
| C[C@]12CC[C@@H]3c4ccc(OC(=O)CCOc5ccc(N(CCCl)CCCl)cc5)cc4CC[C@H]3[C@@H]1CCC(=O)N2 [ENGA-L08E, 12a-methyl-2-oxo-1,2,3,4,4a,4b,5,6,10b,11,12,12a-dodecahydronaphtho[2,1-f]quinolin-8-yl 3-(4-(bis (2-chloroethyl)amino)phenoxy) propanoate] | 63.85 ± 3.62 | 67.94 ± 4.54 | 69.19 ± 2.95 | 32.4 | 17 | 10.9 | 57.59 ± 1.42 | 60.90 ± 3.82 | 63.84 ± 5.49 | 36.2 | 26.6 | 19.4 | 76 ± 7.2 | 95 |
